Row | SMILES | melting point [°C]
1 | COC(=O)c1cc(CCCCc2c(N)nc(N)nc2O)cs1 | 185 to 186
2 | CCC(CC)c1cccc2[nH]c(=O)n(C)c12 | 130 to 132
3 | CC1CCOCc2nc3c(N)nc4cc(Br)ccc4c3n21 (stereo unspecified) | 247 to 248
4 | CSCCC(=O)N(C)c1cnc(-c2cccnc2)s1 | 116 to 118
5 | COc1ccc2c(c1)[C@@]1(C(=O)O)CC=CC[C@H]1CC2 (relative stereo) | 125
6 | COc1cc2c(cc1OC)-c1cc(=O)n(C(C)C)c(=O)n1CC2 | 190 to 192
7 | COc1cc(F)ccc1-c1cncc(OC2SCC(O)C(O)C2O)c1 (stereo unspecified) | 218 to 228
8 | CSc1nc(C)nc(SC)c1NC(=O)CCCCCSc1nc2ccccc2o1 | 148 to 151
9 | CC(C)(C)NNC(=O)c1nn(-c2ccc(F)cc2F)c2c1C1CCC2C1 (stereo unspecified) | 140 to 142
10 | Cc1ccc(F)c([Si](C)(C)C)c1C#N | 71 to 73
11 | FC(F)(F)c1ccc(Cl)c(CN2CCNc3ncc(I)cc32)c1 | 120 to 125
12 | CCOC(=O)C1CCC(Sc2ccc(F)cc2)C(=O)C1 (stereo unspecified) | 96 to 97
13 | O=C(CCCN1CCCCC1)c1ccc2c(c1)Cc1cc(C(=O)CCCN3CCCCC3)ccc1O2 | 115 to 117
14 | CCC(Cc1ccc(C(=O)OC)cc1)NCC(O)c1ccc(O)c(CO)c1 (stereo unspecified) | 64 to 67
15 | O=C(CCCCCNC(=O)c1ccco1)NO | 114 to 115
16 | CCNC(=O)NC1CCCc2ccccc21 (stereo unspecified) | 178 to 179
17 | CC(Cl)(Cl)C(NC(=O)c1cccc(F)c1)NC(=NC#N)Nc1ccc(Cl)nc1 (stereo unspecified) | 191 to 192
18 | c1cc2c(cc1CCSSCCc1ccc3c(c1)OCO3)OCO2 | 76 to 78
19 | CC(=O)Oc1ccc(C2(c3ccc(OC(C)=O)cc3)C(Cl)(Cl)C23CCCCC3)cc1 | 162 to 163
20 | OC(CSc1ncnc2[nH]ncc12)CN1CCN(C(c2ccc(Cl)cc2)c2ccc(Cl)cc2)CC1 (stereo unspecified) | 115 to 118
21 | N#Cc1cccc(-c2csc(N=C(N)N)n2)n1 | > 300
22 | COC(=O)C12OCC34C(CC5C(C)=C(O)C(=O)CC5(C)C3C(O)C1O)OC(=O)C(OC(=O)C=C(C)C(C)C)C24 (stereo unspecified) | 220 to 223
23 | CC(=O)NC[C@H]1CN(c2ccc(C3CCN(C(=O)CO)CC3)c(F)c2)C(=O)O1 | 182 to 183
24 | CCC1(N2C(=O)c3c(F)c(F)c(F)c(F)c3C2=O)C(=O)NC(=O)N(c2ccccc2)C1=O (stereo unspecified) | 218 to 220

Second part, the compound after the results:

Row | melting point [°C] | SMILES
25 | 172 to 174 | COc1ccc2c(c1)c(CCC(=O)O)cn2S(=O)(=O)c1ccc(C)cc1
26 | 235 to 242 | Cc1cccc(=O)c(NC(=O)C2=C(O)c3ccccc3S(=O)(=O)N2C)c1
27 | 169 to 171 | Nc1sc2c(c1C(=O)c1ccc3ccccc3c1)CCN(Cc1ccccc1Cl)C2
28 | 182 to 184 | O=C1N(C(c2ccccc2)c2ccccc2)c2ccccc2C12COc1ccc(F)cc12 (stereo unspecified)
29 | 125 to 127 | CON(C)C(=O)c1cc(O)cc2cc(-c3ccc(O)cc3)oc12
30 | 235 to 237 | CC(c1ccccc1)c1n[nH]c2c1c(=O)n(-c1cccc(C(F)(F)F)c1)c1ncccc21 (stereo unspecified)
31 | 130 to 131 | C/C(=C\c1ccc(OC(C)C)cc1Oc1ncc(C(F)(F)F)cc1Cl)C(=O)NS(=O)(=O)NCCc1cccs1
32 | 208 | CCOC(=O)C1=C(C)NC(N)=C(C(=O)OCC)C1c1ccccc1C#N (stereo unspecified)
33 | 193 to 195 | O=C(c1ccc2nc(C3CC3)n(Cc3ccccc3Cl)c2c1)N1CCOCC1
34 | 132 to 134 | CCOC(=O)c1cc(-c2ccc(Cl)cc2)cnc1C(Cl)Cl
35 | 176 to 178 | Nc1c(-c2ccc(C(F)(F)F)cc2F)nnn1-c1ccc(O)cc1
36 | 92 to 94 | Nc1ncc(-c2ccccc2)nc1SC1CCCC1
37 | 164 | Nc1ccc(OCCCN2C(=O)c3ccccc3C2=O)cc1[N+](=O)[O-]
38 | 206 | CCc1cc2ccccn2c1C(=O)c1cc(Cl)c(O)c(Cl)c1
39 | 176 to 181 | COc1cc(Nc2c(C#N)cnc3cc(-c4ccc(CN5CCN(CCO)CC5)o4)ccc23)c(Cl)cc1Cl
40 | 125 to 127 | CCCCOc1ccc(C(C)NC(=O)NO)cc1 (stereo unspecified)
41 | 210 to 212 | N=C(NCC1CCCO1)Nc1c([N+](=O)[O-])cnc2ccccc12 (stereo unspecified)
42 | 97 to 98 | C=C(c1cc(F)ccc1OCc1ccc(-c2ccccc2)cc1)n1ccnc1
43 | 162 to 165 | CN(Cc1ccc(CCn2cnc3cc(-c4ccc(Cl)cc4)sc3c2=O)cc1)C(=O)CCl
44 | 160 to 162 | O=C(O)CCCc1ccc(C(NS(=O)(=O)c2ccc(Cl)cc2)C2CCCC2)cc1 (single isomer, unassigned; (-))
45 | 162 to 169 | CC(C)(C)c1cc(C(CCc2ccccc2)NCP(=O)(O)O)cc(C(C)(C)C)c1O (stereo unspecified)
46 | 146 | COc1cc(NCCN2CCC(Nc3nc4ccccc4n3Cc3ccc(F)cc3)CC2)ncn1
47 | 142 | O=C(Nc1ccc(Cl)cc1)C(CS)Cc1ccccc1 (stereo unspecified)
48 | 117 to 119 | COc1ccnc(CCc2nc3cc(-c4ccc(N)cc4)cnc3[nH]2)c1
49 | 118 to 119 | Clc1ccc2nc(-c3ccccn3)nn2c1
50 | 189 to 191 | CC(C)c1ccc2oc(C=Cc3ccc(C#N)cc3)cc(=O)c2c1
51 | 85 | C#CCOc1ccc(CCNC(=O)C(O)Cc2ccc(C)cc2)cc1OC (stereo unspecified)
